The values below are quoted from earlier work in US20170151174A1, “MAGNETOENZYMATIC CARRIER SYSTEM FOR IMAGING AND TARGETED DELIVERY AND RELEASE OF ACTIVE AGENTS” (priority 2014, published 2017).

In this data set the test system is colon HT-29 cancer cells. Conditions: SMase activity of 0.5 U/ml.

On to sphingomyelinase [SMase], for which the cell death is reported as 80%.
